Data: patent US7550507B2, “2-(alpha-hydroxypentyl) benzoate and its preparation and use” (Institute of Materia Medica, Chinese Academy of Medical …, priority 2002, dated 2009)
Where “and” joins values, the source holds several entries; their conditions need not be identical. Identical values can stand only once. Marks after values point to notes of the source that are not given here.

How the values were obtained:
isolated hearts on rats = assay: Cardiac arrhythmia induced by ischemia-reperfusion in isolated rat hearts (Langendorff perfusion); parameters: species or system male Wistar rats; details: for Duration of Arrhythmia: 15 min ischemia, 30 min reperfusion, control 22.5 ± 9.5; for VT Duration: control 8.2 ± 7.9; for VF Incidence: control 33.3; for Spasmic VT Incidence: control 66.7; for VE Incidence: control 83.3; for VT Incidence: control 100
Experimental: Animals: male Wistar rats, 250-300 g, from the Animal Center of the Chinese Academy of Medical Sciences, randomly grouped.
Langendoff perfusion system;
XD-7100 ECG, Shanghai Medical Electronic Devices Factory
(1) remove the rat heart quickly after decapitation and put it into K—H solution at 4° C., fix the aorta to the perfusion system;
(2) perfuse the heart with K—H solution, 6-8 ml/min, 37±0.5° C., under the pressure of about 60 mmH2O;
(3) connect the two copper electrodes to the cardiac apex and the bottom of the right atria and record the cardiogram;
(4) perporate under the left anterior descending branch of the coronary artery with 3/0 line;
(5) perfuse the heart for 10 minutes and record the normal cardiogram;
(6) ligate the left anterior descending branch of the coronary artery to make myocardial ischemia for 15 minutes;
(7) nip the line and resume the perfusion, record the change of cardiogram for 30 minutes (mainly on VF and Spasmic VT);
(8) dissolve the dl-PHPB at pH 1.5 to a desired concentration, add it into K—H solution to do the experiments.

[1] = test system: platelet aggregation induced by ADP; assay: Platelet aggregation induced by ADP in PRP of rats after oral administration (Born method); format: in vivo, male Wistar rats; details: ADP 5 μmol/L
Experimental: Animal: male Wistar rats (260-280 g), from the Animal Center of the Chinese Academy of Medical Sciences.
Potassium 2-(1-hydroxypentyl)-benzoate, dl-PHPB),
ADP, obtained from Shanghai Institute of Biochemistry, Acedemia Sinica.
Equipment: Platelet Aggregometer (type: PAT-4A MEGURO-KU, TOKYO, JAPAN.
Groups: Animals were divided into four groups:
1) Control group: double-distilled water (400 mg/kg) was adimistrated per os (p.o) 30 minutes prior blood sampling;
2) Dl-PHPB (400 mg/kg) was administrated per os (p.o) 30 minutes prior to the blood sampling;
3) Dl-PHPB (400 mg/kg) was administrated per os (p.o) 60 minutes prior to the blood sampling;
4) Dl-PHPB (200 mg/kg) was administrated per os (p.o) 30 minutes prior to the blood sampling;
After oral administration of dl-PHPB, blood was drawn from the carotid of rats at the time points of 30 and 60 minutes, respectively. Platelet rich plasma (PRP) and platelet poor plasma (PPP) were prepared upon common procedure. According to the method described by of Born, PRP (200 μl) was put on the Platelet Aggregometer and pre-incubated at 37° C. for 5 minutes and then ADP with the final concentration of 5 μmol/L was added to induce platelet aggregation. The maximum aggregation was measured 5 minutes after the addition of ADP.

rats of permanent MCAO = assay: Infarction area after local cerebral ischemia (permanent MCAO) in rats, TTC staining; format: in vivo, male Wistar rats; details: 24 hours after MCAO; for infarct area (weight percentage of the infarct tissue to the total cerebral tissue), X ± SD: 200 mg/kg p.o. with HCl (pH 1.6) 0.5 ml, 30 min prior to ischemia, control 26.99 ± 3.51
Experimental: Animal: male Wistar rats (250-280 g), from the Animal Center of the Chinese Academy of Medical Sciences.
dl-PHPB was dissolved in double distilled water.
Methods: Middle cerebral artery occlusion(MCAO): the rats were anesthetized by trichloroacetaldehyde monohydrate (350 mg/kg, ip). The left CCA was exposed through a middle neck incision and was carefully dissected free from surrounding nerves. The ICA and ECA were isolated. Then a 4 cm long 0.26 mm diameter nylon suture was inserted through proximal ECA into ICA for a length of […] from the bifurcation. The wounds were sutured and the rats were released. The room temperature was kept 24-25° C. during the test.
Animals were divided into two groups, 1) administration group: dl-PHPB (200 mg/kg) and HCl (pH 1.6) 0.5 ml (to mimic the acidic condition of the human stomach) were administrated per os (p.o) 30 minutes prior to ischemia; 2) Control group: double-distilled water and HCl (pH 1.6) 0.5 ml were administrated per os (p.o) 30 minutes prior to ischemia.
The anaesthetized animals were decapitated 24 hours after MCAO. Each brain were rapidly removed and kept in ice-cold saline (0-4° C.). After 10 minutes, the coronal section was sliced into five pieces after the removal of bulbus olfactus, cerebellum, and low brain stem. Upon cutting, the first cut was at the center point of the connection line of the polus anterior of cerebrum and the optic chiasm, the second cut was at the site of optic chiasm, the third was at the site of infundibulum stalk, and the fourth was between the infundibulum stalk and the caudal pole of posterior lobe. The sliced brain was kept in a 5 ml solution of TTC (4%) and K2HPO4 (1M), shaded and incubated at 37° C. for 30 minutes. During the incubation, slices were turned over every 7 -8 minutes. […] The infarcted tissue was separated from the normal tissue and weighed. The infarction area is calculated from the weight percentage of the infarct tissue to the total cerebral tissue.

CCCCC(O)c1ccccc1C(=O)[O-].[K+] (racemic) [dl-PHPB, Potassium dl-2-(α-hydroxypentyl) benzoate]
Duration of Arrhythmia (isolated hearts on rats; 10^−4 mol/L in K-H solution): 1.7 ± 0.6 min
VT Duration (isolated hearts on rats; 10^−4 mol/L): 1.1 ± 0.6 min
VF Incidence (isolated hearts on rats; 10^−4 mol/L): 0%
Spasmic VT Incidence (isolated hearts on rats; 10^−4 mol/L): 0* %
VE Incidence (isolated hearts on rats; 10^−4 mol/L): 42.9%
VT Incidence (isolated hearts on rats; 10^−4 mol/L): 100%
Duration of Arrhythmia (isolated hearts on rats; 10^−5 mol/L in K-H solution): 23.3 ± 5.8 min
VT Duration (isolated hearts on rats; 10^−5 mol/L): 5.0 ± 6.5 min
VF Incidence (isolated hearts on rats; 10^−5 mol/L): 33.3%
Spasmic VT Incidence (isolated hearts on rats; 10^−5 mol/L): 50%
VE Incidence (isolated hearts on rats; 10^−5 mol/L): 66.7%
VT Incidence (isolated hearts on rats; 10^−5 mol/L): 100%
Rate of inhibition ([1]; 200 mg/kg p.o., 30 min): 6.62%
Rate of inhibition ([1]; 400 mg/kg p.o., 30 min): 19.31%
Rate of inhibition ([1]; 400 mg/kg p.o., 60 min): 10.21%
infarct area, individual animals of treated group (rats of permanent MCAO; 200 mg/kg p.o. 30 min prior to ischemia, single rats): 18.79% and 26.01% and 20.24% and 18.24% and 22.74% and 16.84% and 15.93%
infarct area (weight percentage of the infarct tissue to the total cerebral tissue), X ± SD (rats of permanent MCAO): 19.83 ± 3.53 %
infarct area (weight percentage of the infarct tissue to the total cerebral tissue), X ± SD (rats of permanent MCAO; listed as dl-PHBP): 19.83±3.53%
